Assay results published in patent US8513232B2, “Substituted spirocyclic piperidine derivatives as histamine-3 (H3) receptor ligands” (Cephalon, Inc., priority 2008, dated 2013).

Legend:
human H3 receptor = target: T1, human H3 receptor (Homo sapiens, UniProt Q9Y5N1); assay: Human H3 radioligand binding ([3H]-N-alpha-methylhistamine, SPA); conditions: read-out: Human H3 Ki
T1 construct: expressed in transfected cells
In short: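 SPA competition binding on membranes from CHO cells stably expressing human H3 receptor (10 μg protein/well) with ~1 nM [3H]-N-alpha-methylhistamine and compound at 0.01 nM-30 μM. Incubation 4 h at room temperature in 50 mM Tris-HCl pH 7.4, 5 mM MgCl2, 0.1% BSA; non-specific binding defined with 10 μM clobenpropit.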

[1] = target: T2, rat histamine H3 receptor (Rattus norvegicus, UniProt Q9QYN8); assay: Rat H3 radioligand binding ([3H]-N-alpha-methylhistamine, SPA); conditions: read-out: Rat H3 kI
T2 construct: encoding the entire 445-amino-acid rat histamine H3 receptor; expressed in transfected cells; membrane preparation
In short: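 Membranes from CHO-A3 cells stably expressing full-length rat H3 receptor (10 μg protein/well) incubated 4 h at room temperature, protected from light, with ~1 nM [3H]-N-alpha-methylhistamine and compound (0.01 nM-30 μM) in 50 mM Tris HCl pH 7.4, 5 mM MgCl2, 0.1% BSA. Binding read by SPA; 10 μM clobenpropit defined non-specific binding.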

T2 sequence (Q9QYN8 whole entry): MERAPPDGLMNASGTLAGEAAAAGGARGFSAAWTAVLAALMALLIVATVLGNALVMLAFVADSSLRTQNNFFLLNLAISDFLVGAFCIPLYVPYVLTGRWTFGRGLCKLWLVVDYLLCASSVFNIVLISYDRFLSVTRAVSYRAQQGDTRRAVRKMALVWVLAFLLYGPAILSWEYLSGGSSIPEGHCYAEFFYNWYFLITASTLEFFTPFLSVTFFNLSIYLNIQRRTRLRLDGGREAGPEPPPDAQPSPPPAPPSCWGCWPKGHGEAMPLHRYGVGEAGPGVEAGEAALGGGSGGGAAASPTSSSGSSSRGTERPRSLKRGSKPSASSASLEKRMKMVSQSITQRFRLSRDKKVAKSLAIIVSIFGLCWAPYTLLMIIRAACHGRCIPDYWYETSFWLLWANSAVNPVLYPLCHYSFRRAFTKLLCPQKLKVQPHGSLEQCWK
T1 sequence (Q9Y5N1 whole entry): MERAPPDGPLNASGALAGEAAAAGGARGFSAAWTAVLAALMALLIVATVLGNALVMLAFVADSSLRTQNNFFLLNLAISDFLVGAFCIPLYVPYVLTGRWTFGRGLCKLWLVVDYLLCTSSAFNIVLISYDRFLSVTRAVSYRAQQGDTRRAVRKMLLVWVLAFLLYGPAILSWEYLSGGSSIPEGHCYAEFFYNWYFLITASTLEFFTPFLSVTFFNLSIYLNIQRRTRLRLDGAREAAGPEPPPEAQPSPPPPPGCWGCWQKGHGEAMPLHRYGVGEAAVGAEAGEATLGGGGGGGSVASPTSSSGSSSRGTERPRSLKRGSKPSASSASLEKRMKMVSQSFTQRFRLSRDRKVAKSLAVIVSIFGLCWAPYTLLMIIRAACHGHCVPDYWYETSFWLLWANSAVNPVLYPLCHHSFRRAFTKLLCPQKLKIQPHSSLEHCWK

| Compound | melting point [°C] | Ki (human H3 receptor) [nM] | Ki [1] [nM] |
| --- | --- | --- | --- |
| O=c1ncc(Oc2ccc3c(c2)CCC2(CCN(C4CCC4)CC2)O3)c[nH]1 [Example 495] | 259 to 261 | < 200 | < 200 |
| O=C1CC=C(c2ccc3c(c2)COC2(CCN(C4CCC4)CC2)O3)CC1 [Example 497] | 153 to 155 | < 200 | < 200 |
| c1cc2c(cc1OCC1CCSCC1)CCC1(CCN(C3CCC3)CC1)O2 [Example 499] | 117 to 118 | < 200 | < 200 |
| COc1ccc(/C=C/c2ccc3c(c2)COC2(CCN(C4CCC4)CC2)O3)cn1 [Example 502] | 144 to 146 | < 200 | < 200 |
| COc1ncc(Oc2ccc3c(c2)CCC2(CCN(C4CCC4)CC2)O3)cn1 [Example 503] | 227 to 229 | < 200 | < 200 |
| COc1ccc(C(O)c2ccc3c(c2)COC2(CCN(C4CCC4)CC2)O3)cn1 (stereo not drawn) [Example 504] | 78 to 80 | < 200 | < 200 |
| COc1ccc(/C=C/c2ccc3c(c2)COC2(CCN(C4CCC4)CC2)O3)nn1 [Example 510] | 168 to 170 | < 200 | < 200 |
| CCNC(=O)C1CCC(O)(c2ccc3c(c2)COC2(CCN(C4CCC4)CC2)O3)CC1 (stereo not drawn) [Example 514] | 195 to 196 | < 200 | < 200 |
| COCCN1CC(COc2ccc3c(c2)CCC2(CCN(C4CCC4)CC2)O3)CC1=O (stereo not drawn) [Example 515] | 194 to 196 | < 200 | < 200 |
| COc1ccc(Cc2ccc3c(c2)COC2(CCN(C4CCC4)CC2)O3)cn1 [Example 516] | 229 to 231 | < 200 | < 200 |
| CN1CC(COc2ccc3c(c2)CCC2(CCN(C4CCC4)CC2)O3)CC1=O (stereo not drawn) [Example 519] | 234 to 236 | < 200 | < 200 |
| O=c1ccc(Cc2ccc3c(c2)COC2(CCN(C4CCC4)CC2)O3)c[nH]1 [Example 527] | 194 to 196 | < 200 | < 200 |
| O=c1ccc(CCc2ccc3c(c2)COC2(CCN(C4CCC4)CC2)O3)c[nH]1 [Example 528] | 183 to 185 | < 200 | < 200 |
| c1ccc(COc2ccc(-c3ccc4c(c3)COC3(CCN(C5CCC5)CC3)O4)cn2)cc1 [Example 529] | 139 to 141 | < 200 | 200 to 1000 |
| OC1(c2ccc3c(c2)CCC2(CCN(C4CCC4)CC2)O3)CCSCC1 [Example 532] | 146 to 148 | < 200 | < 200 |
| c1ccc(COc2ccc(-c3ccc4c(c3)CCC3(CCN(C5CCC5)CC3)O4)cn2)cc1 [Example 533] | 115 to 117 | < 200 | < 200 |
| O=C1CCC(c2ccc3c(c2)CCC2(CCN(C4CCC4)CC2)O3)CN1 (stereo not drawn) [Example 534] | 292 to 294 | < 200 | < 200 |
| O=S1(=O)CCC(O)(c2ccc3c(c2)CCC2(CCN(C4CCC4)CC2)O3)CC1 [Example 535] | 213 to 215 | < 200 | < 200 |
| C(=C\c1ccc2c(c1)CCC1(CCN(C3CCC3)CC1)O2)/c1ccc(OCc2ccccc2)nc1 [Example 537] | 236 to 238 | 200 to 1000 | > 1000 |
| CC(=O)OC1(c2ccc3c(c2)COC2(CCN(C4CCC4)CC2)O3)CC(C(=O)N2CCCC2)C1 (stereo not drawn) [Example 541] | 72 to 74 | < 200 | < 200 |
| Cc1cc2c(cc1-c1ccc(=O)[nH]c1)COC1(CCN(C3CCC3)CC1)O2 [Example 543] | 239 to 240 | < 200 | 200 to 1000 |

The next lines start with the values.

| melting point [°C] | Ki (human H3 receptor) [nM] | Ki [1] [nM] | Compound |
| --- | --- | --- | --- |
| 246 to 248 | < 200 | < 200 | CNC(=O)C1CC(O)(c2ccc3c(c2)COC2(CCN(C4CCC4)CC2)O3)C1 (stereo not drawn) [Example 494] |
| 85 to 90 | < 200 | < 200 | OC(c1ccc2c(c1)COC1(CCN(C3CCC3)CC1)O2)C1CCSCC1 (stereo not drawn) [Example 496] |
| 150 to 153 | < 200 | < 200 | OC1CCC(c2ccc3c(c2)COC2(CCN(C4CCC4)CC2)O3)CC1 (stereo not drawn) [Example 498] |
| 64 to 66 | < 200 | < 200 | OC1(c2ccc3c(c2)COC2(CCN(C4CCC4)CC2)O3)CCC1 [Example 501] |
| 180 to 183 | < 200 | < 200 | OC1(c2ccc3c(c2)COC2(CCN(C4CCC4)CC2)O3)COC1 [Example 505] |
| 50 | < 200 | < 200 | OC1(c2ccc3c(c2)COC2(CCN(C4CCC4)CC2)O3)CCOC1 (stereo not drawn) [Example 506] |
| 249 to 250 | < 200 | < 200 | c1cc2c(cc1C1CCOC1)COC1(CCN(C3CCC3)CC1)O2 (stereo not drawn) [Example 507] |
| 79 to 81 | < 200 | < 200 | OC(c1ccc(Cl)nc1)c1ccc2c(c1)COC1(CCN(C3CCC3)CC1)O2 (stereo not drawn) [Example 508] |
| 149 to 151 | < 200 | < 200 | OC1(c2ccc3c(c2)COC2(CCN(C4CCC4)CC2)O3)CCCC1 [Example 509] |
| 127 to 129 | < 200 | < 200 | O=S1(=O)CCC(C(O)c2ccc3c(c2)COC2(CCN(C4CCC4)CC2)O3)CC1 (stereo not drawn) [Example 511] |
| 164 to 165 | < 200 | < 200 | OC1(c2ccc3c(c2)COC2(CCN(C4CCC4)CC2)O3)CCCCC1 [Example 512] |
| 58 to 62 | < 200 | < 200 | OC(c1ccc(F)cc1)c1ccc2c(c1)COC1(CCN(C3CCC3)CC1)O2 (stereo not drawn) [Example 513] |
| 240 to 241 | < 200 | < 200 | O=S1(=O)CCC(O)(c2ccc3c(c2)COC2(CCN(C4CCC4)CC2)O3)CC1 [Example 517] |
| 128 to 132 | < 200 | < 200 | OC1CC=C(c2ccc3c(c2)COC2(CCN(C4CCC4)CC2)O3)CC1 (stereo not drawn) [Example 525] |
| 217 to 219 | < 200 | < 200 | O=c1ccc(C(O)c2ccc3c(c2)COC2(CCN(C4CCC4)CC2)O3)c[nH]1 (stereo not drawn) [Example 526] |
| 233 to 235 | < 200 | < 200 | O=C1CCC(c2ccc3c(c2)COC2(CCN(C4CCC4)CC2)O3)CN1 (stereo not drawn) [Example 530] |
| 113 to 115 | < 200 | < 200 | OC1CCC(c2ccc3c(c2)COC2(CCN(C4CCC4)CC2)O3)CC1 (stereo not drawn) [Example 531] |
| 148 to 150 | < 200 | < 200 | OC(c1ccc2c(c1)COC1(CCN(C3CCC3)CC1)O2)C1CCCC1 (stereo not drawn) [Example 536] |
| 219 to 221 | < 200 | < 200 | O=C1CCC(Cc2ccc3c(c2)COC2(CCN(C4CCC4)CC2)O3)CN1 (stereo not drawn) [Example 539] |
| 199 to 201 | < 200 | < 200 | COC1(c2ccc3c(c2)COC2(CCN(C4CCC4)CC2)O3)CCS(=O)(=O)CC1 [Example 542] |
